Results: PubChem BioAssay AID1259407 (Chemical Carcinogenesis Research Information System (CCRIS), 2018)
Calls of active or inactive are those of the source. No rule for the calls is given here.

System: CCRIS mutagenicity, Ames/micronucleus/aberration tests
Experiment: CCRIS mutagenicity studies
[1] = Test System: AMES SALMONELLA TYPHIMURIUM, Strain/Indicator: TA98, Metabolic Activation: NONE, Method: STANDARD PLATE
[2] = Test System: AMES SALMONELLA TYPHIMURIUM, Strain/Indicator: TA98, Metabolic Activation: RAT, LIVER, S-9, AROCLOR 1254, Method: STANDARD PLATE
[3] = Test System: AMES SALMONELLA TYPHIMURIUM, Strain/Indicator: TA100, Metabolic Activation: NONE, Method: STANDARD PLATE
[4] = Test System: AMES SALMONELLA TYPHIMURIUM, Strain/Indicator: TA100, Metabolic Activation: RAT, LIVER, S-9, AROCLOR 1254, Method: STANDARD PLATE

For `COCC=O`, the mutagenic call (Test System: AMES SALMONELLA TYPHIMURIUM, Strain/Indicator: TA97A, Metabolic Activation: NONE, Method: STANDARD PLATE) was “active; positive”, the mutagenic call (Test System: AMES SALMONELLA TYPHIMURIUM, Strain/Indicator: TA97A, Metabolic Activation: RAT, LIVER, S-9, AROCLOR 1254, Method: STANDARD PLATE) was “active; positive” and the mutagenic call [1] was “inactive; negative”. The mutagenic call [2] was “inactive; negative”, the mutagenic call [3] was “inactive; negative” and the mutagenic call [4] was “inactive; negative”. For the same compound, the mutagenic call (Test System: AMES SALMONELLA TYPHIMURIUM, Strain/Indicator: TA102, Metabolic Activation: NONE, Method: STANDARD PLATE) was “inactive; negative”, the mutagenic call (Test System: AMES SALMONELLA TYPHIMURIUM, Strain/Indicator: TA102, Metabolic Activation: RAT, LIVER, S-9, AROCLOR 1254, Method: STANDARD PLATE) was “inactive; negative” and the mutagenic call (Test System: CHINESE HAMSTER OVARY, Strain/Indicator: CHO AS52 (GPT)/6-THIOGUANINE, Metabolic Activation: NONE) was “active; positive”. The mutagenic call (Test System: CHINESE HAMSTER OVARY, Strain/Indicator: CHO-AS52/6-THIOGUANINE, Metabolic Activation: NONE) was “active; positive”, the mutagenic call (Test System: CHINESE HAMSTER OVARY, Strain/Indicator: CHO-K1-BH4 (HGPRT)/6-THIOGUANINE, Metabolic Activation: NONE) was “inactive; negative” and the mutagenic call (Test System: CHINESE HAMSTER OVARY, Strain/Indicator: CHO-K1-BH4 (HGPRT)/6-THIOGUANINE, Metabolic Activation: RAT, LIVER, S-9, AROCLOR 1254) was “inactive; negative”. For the same compound, the mutagenic call (Test System: CHINESE HAMSTER V-79, Strain/Indicator: V-79 (HPRT)/6-THIOGUANINE, Metabolic Activation: NONE) was “active; positive”.
In the case of `O=c1ccc2cc(O[C@@H]3O[C@H](CO)[C@@H](O)[C@H](O)[C@H]3O)c(O)cc2o1`, the mutagenic call (Test System: AMES SALMONELLA TYPHIMURIUM, Strain/Indicator: TA92, Metabolic Activation: NONE, Method: SPOT TEST) was “inactive; negative”, the mutagenic call (Test System: AMES SALMONELLA TYPHIMURIUM, Strain/Indicator: TA92, Metabolic Activation: RAT, LIVER, S-9, AROCLOR 1254, Method: SPOT TEST) was “inactive; negative” and the mutagenic call (Test System: AMES SALMONELLA TYPHIMURIUM, Strain/Indicator: TA94, Metabolic Activation: NONE, Method: SPOT TEST) was “inactive; negative”. For the same compound, the mutagenic call (Test System: AMES SALMONELLA TYPHIMURIUM, Strain/Indicator: TA94, Metabolic Activation: RAT, LIVER, S-9, AROCLOR 1254, Method: SPOT TEST) was “inactive; negative”, the mutagenic call (Test System: AMES SALMONELLA TYPHIMURIUM, Strain/Indicator: TA97, Metabolic Activation: NONE, Method: SPOT TEST) was “inactive; negative” and the mutagenic call (Test System: AMES SALMONELLA TYPHIMURIUM, Strain/Indicator: TA97, Metabolic Activation: RAT, LIVER, S-9, AROCLOR 1254, Method: SPOT TEST) was “inactive; negative”. For the same compound, the mutagenic call (Test System: AMES SALMONELLA TYPHIMURIUM, Strain/Indicator: TA98, Metabolic Activation: NONE, Method: SPOT TEST) was “inactive; negative”, the mutagenic call (Test System: AMES SALMONELLA TYPHIMURIUM, Strain/Indicator: TA98, Metabolic Activation: RAT, LIVER, S-9, AROCLOR 1254, Method: SPOT TEST) was “inactive; negative” and the mutagenic call (Test System: AMES SALMONELLA TYPHIMURIUM, Strain/Indicator: TA100, Metabolic Activation: NONE, Method: SPOT TEST) was “inactive; negative”. The mutagenic call (Test System: AMES SALMONELLA TYPHIMURIUM, Strain/Indicator: TA100, Metabolic Activation: RAT, LIVER, S-9, AROCLOR 1254, Method: SPOT TEST) was “inactive; negative”, the mutagenic call (Test System: AMES SALMONELLA TYPHIMURIUM, Strain/Indicator: TA102, Metabolic Activation: NONE, Method: SPOT TEST) was “inactive; negative” and the mutagenic call (Test System: AMES SALMONELLA TYPHIMURIUM, Strain/Indicator: TA102, Metabolic Activation: RAT, LIVER, S-9, AROCLOR 1254, Method: SPOT TEST) was “inactive; negative”.
`Nc1ccc(Cl)c(Cl)c1Cl` was tested, and the mutagenic call [1] was “inactive; negative”, the mutagenic call [2] was “inactive; negative” and the mutagenic call [3] was “inactive; negative”. The mutagenic call [4] was “inactive; negative”.
For `C[C@H]1CC[C@@H]2[C@@H](C)[C@H]3C(C[C@H]4[C@@H]5CC=C6C[C@@H](O[C@@H]7O[C@H](CO)[C@H](O)[C@H](O[C@@H]8O[C@H](CO)[C@@H](O)[C@H](O)[C@H]8O)[C@H]7O[C@@H]7O[C@@H](C)[C@H](O)[C@@H](O)[C@H]7O)CC[C@]6(C)C5CC[C@]34C)N2C1` (stereo partly drawn), the mutagenic call [1] was “inactive; negative”, the mutagenic call (Test System: AMES SALMONELLA TYPHIMURIUM, Strain/Indicator: TA98, Metabolic Activation: S-9, Method: STANDARD PLATE) was “inactive; negative” and the mutagenic call [3] was “inactive; negative”. The mutagenic call (Test System: AMES SALMONELLA TYPHIMURIUM, Strain/Indicator: TA100, Metabolic Activation: S-9, Method: STANDARD PLATE) was “inactive; negative”.
